Activity data for one compound are collected here from ChEMBL document CHEMBL5042483, “Discovery and Mechanism of SARS-CoV-2 Main Protease Inhibitors” (J Med Chem, 2022).

The source made the active and inactive calls. The calls are words filed in the database; no cut-off is given here.

The test system of assay [1] is SARS-CoV-2. In words: Antiviral activity against SARS-CoV-2 USA_WA1/2020 infected in human iPSC derived lung organoids assessed as reduction in viral RNA in cell supernatant at 5 uM pretreated for 2 hrs with compound followed by viral infection for 2 hrs then followed by washout and replacement with fresh medium and measured after 72 hrs by qRT-PCR analysis relative to control. Format: functional, organism-based. To be noted: Severe acute respiratory syndrome coronavirus 2, time 76.0 hrs.

Assay [2] deals with SARS-CoV-2. Kind of assay: Antiviral activity against SARS-CoV-2 USA_WA1/2020 infected in human iPSC derived lung organoids assessed as reduction in viral RNA in intracellular fraction at 5 uM pretreated for 2 hrs with compound followed by viral infection for 2 hrs then followed by washout and replacement with fresh medium and measured after 72 hrs by qRT-PCR analysis relative to control. Format: functional, organism-based. To be noted: Severe acute respiratory syndrome coronavirus 2, time 76.0 hrs. (Real-time PCR tracks product formation cycle by cycle.)

With `O=c1c2ccccc2[se]n1-c1cccc(C(F)(F)F)c1`, the result in the assay with SARS-CoV-2 [1] and in the assay with SARS-CoV-2 [2] was Active.
